Measured values as given in patent publication US8497367B2, “Sucralose purification process” (Tate & Lyle Technology Limited, priority 2008, dated 2013).

Test: Distribution coefficient K of sucralose between ethyl acetate (light phase) and aqueous DMAHCl/NaCl solution (heavy phase)
Assay type: physicochemical
Conditions: about 37 g ethyl acetate
Method: The solutions were all clear and colorless at room temperature.
Each sample was shaken with about 37 g of ethyl acetate (EA). The mixture was allowed to settle, resulting in the formation of a heavy phase (aqueous) and a light phase (EA based). The weights of these respective phases were recorded and each phase was analysed for its sucralose content. The dry solids content of each phase was also measured by evaporation to dryness (moisture balance).
From the data presented, it is possible to calculate the distribution coefficient K for each experiment, where K is defined as: K=(Wt % Sucralose in light phase)/(Wt % sucralose in heavy phase)

- Calculated K / Actual K = (Wt % Sucralose in light phase)/(Wt % sucralose in heavy phase) (Exp #3, feed wt % on water: DMAHCL 0.36%, NaCl 9.87%, sucralose 27.58%): 1.38
- Calculated K / Actual K = (Wt % Sucralose in light phase)/(Wt % sucralose in heavy phase) (Exp #4, feed wt % on water: DMAHCL 0.41%, NaCl 2.10%, sucralose 27.06%): 0.93
- Calculated K / Actual K = (Wt % Sucralose in light phase)/(Wt % sucralose in heavy phase) (Exp #5, feed wt % on water: DMAHCL 5.07%, NaCl 9.75%, sucralose 27.31%): 1.09
- Calculated K / Actual K = (Wt % Sucralose in light phase)/(Wt % sucralose in heavy phase) (Exp #8, feed wt % on water: DMAHCL 4.99%, NaCl 2.04%, sucralose 27.01%): 0.83
- Calculated K / Actual K = (Wt % Sucralose in light phase)/(Wt % sucralose in heavy phase) (Exp #9, feed wt % on water: DMAHCL 2.55%, NaCl 5.15%, sucralose 13.98%): 0.76
SMILES: OC[C@H]1O[C@H](O[C@]2(CCl)O[C@H](CCl)[C@@H](O)[C@@H]2O)[C@H](O)[C@@H](O)[C@H]1Cl [Sucralose, 4,1′,6′-trichloro-4,1′,6′-trideoxygalactosucrose]
